Reference: patent US8178506B2, “Oligomeric compounds and compositions for use in modulation of small non-coding RNAs” (Regulus Therapeutics Inc., priority 2003, dated 2012)
Entries after “also recorded” stand apart in the source; their conditions may differ. In the oligonucleotide strings, read from the 5' end, every base follows the letter of its sugar. An asterisk marks phosphorothioate; unmarked linkages are phosphodiester. Other units and linkages are bracketed, terminal groups are in braces. A string of capitals states the bases alone. e = 2'-O-(2-methoxyethyl) (MOE); [5mC] = 5-methylcytosine; d = 2'-deoxy (DNA)

test system: mir-21 pri-miRNA; experiment: mir-21 pri-miRNA expression in HeLa cells (real-time RT-PCR); type: cell-based, human; details: HeLa cells, 100 nM, real-time RT-PCR
Procedure: In one embodiment, the expression of mir-21 (noted to be expressed at high levels in HeLa cells) was assessed in cells treated with oligomeric compounds. Using the transfection methods previously described, HeLa cells were treated with 100 nM of the uniform 2′-MOE oligomeric compound ISIS Number 327917 (SEQ ID NO: 335) targeting the mir-21 mature miRNA. Total RNA was isolated by lysing cells in 1 mL TRIZOL™ (Invitrogen) using the manufacturer's recommended protocols. […] Real-time RT-PCR analysis was also performed on HeLa cells treated with ISIS 327917 using a primer/probe set specific for the mir-21 pri-miRNA molecule [forward primer=ISIS 339332 ([…]; herein incorporated as SEQ ID NO.: 911), reverse primer-ISIS 339333 (TCGACTGGTGTTGCCATGA; herein incorporated as SEQ ID NO.: 912), and probe=ISIS 339334 ([…]; herein incorporated as SEQ ID NO.: 913)]. Total RNA was quantified using RiboGreen™ RNA quantification reagent (Molecular Probes, Inc. Eugene, Oreg.), expression levels observed for the target were normalized to 5.8S rRNA, and values were expressed relative to an untreated control (UTC).
Using the real-time RT-PCR methods, the expression levels of the mir-21 pri-miRNA were compared in HeLa cells treated with this nested series of uniform 2′-MOE oligomeric compounds, targeting and spanning the entire length of the mir-21 pri-miRNA. ISIS Number 358768 (SEQ ID NO: 918) targets a region flanking the predicted 5′ Drosha cleavage site in the mir-21 pri-miRNA. ISIS Number 358777 (SEQ ID NO: 927) targets a region spanning the 3′ Drosha cleavage site in the mir-21 pri-miRNA. ISIS 358779 (SEQ ID NO: 929) targets a region flanking the predicted 3′ Drosha cleavage site in the mir-21 pri-miRNA. Additionally, oligomeric compounds ISIS 327917 (SEQ ID NO: 335), a uniform 2′-MOE compound targeting the mature mir-21 miRNA, and ISIS 345382 ([…]; SEQ ID NO: 335), a 5-10-7 phosphorothioate 2′-MOE gapmer targeting mir-21, were tested for comparison. Oligomeric compound ISIS 327863 ([…]; herein incorporated as SEQ ID NO: 936), a phosphorothioate 5-10-52′-MOE gapmer, was used as scrambled control. […] Total RNA was isolated by lysing cells in 1 mL TRIZOL™ (Invitrogen) using the manufacturer's recommended protocols. real-time RT-PCR analysis was performed using the primer/probe set specific for the mir-21 pri-miRNA molecule [forward primer=ISIS 339332 (SEQ ID NO.: 911), reverse primer-ISIS 339333 (SEQ ID NO.: 912), and probe=ISIS 339334 (SEQ ID NO.: 913)]. Total RNA was quantified using RiboGreen™ RNA quantification reagent (Molecular Probes, Inc. Eugene, Oreg.), expression levels observed for each target were normalized to 5.8S rRNA, and values were expressed relative to the untreated control (UTC). Effects on expression of the mir-21 pri-miRNA molecule resulting from treatment of HeLa cells with these uniform 2′-MOE oligomeric compounds is expressed as a percentage of RNA levels in untreated control cells.

Row | Substance | mir-21 pri-miRNA expression % UTC [% UTC]
1 | 358770 (eA*eG*eT*e[5mC]*eT*eG*eA*eT*eA*eA*eG*e[5mC]*eT*eA*e[5mC]*e[5mC]*e[5mC]*eG*eA*e[5mC]; antisense) [compound 358770] | 250
2 | 358776 (antisense eT*eG*eT*e[5mC]*eA*eG*eA*e[5mC]*eA*eG*e[5mC]*e[5mC]*e[5mC]*eA*eT*e[5mC]*eG*eA*e[5mC]*eT) [compound 358776] | 367
3 | 327863 (antisense ACGCTAGCCTAATAGCGAGG; sugars from the 5' end e5 d10 e5, all phosphorothioate, methylation of C not given here) [compound 327863] | 107
4 | 358769 (eG*eA*eT*eA*eA*eG*e[5mC]*eT*eA*e[5mC]*e[5mC]*e[5mC]*eG*eA*e[5mC]*eA*eA*eG*eG*eT; antisense) [compound 358769] | 265
5 | 358779 (antisense eG*eG*eT*e[5mC]*eA*eG*eA*eT*eG*eA*eA*eA*eG*eA*eT*eA*e[5mC]*e[5mC]*eA*eA) [compound 358779] | 646
6 | 358785 (antisense eG*eA*eA*eA*eG*eA*eT*eA*e[5mC]*e[5mC]*eA*eA*eA*eA*eT*eG*eT*e[5mC]*eA*eG) [compound 358785] | 257
7 | 358778 (antisense eG*eA*eT*eA*e[5mC]*e[5mC]*eA*eA*eA*eA*eT*eG*eT*e[5mC]*eA*eG*eA*e[5mC]*eA*eG) [compound 358778] | 503
8 | 358766 (eG*eG*eT*eA*eG*eG*e[5mC]*eA*eA*eA*eA*e[5mC]*eA*eA*eG*e[5mC]*eA*eG*eA*e[5mC]; antisense) [compound 358766] | 142
9 | 358775 (antisense eA*e[5mC]*eA*eG*e[5mC]*e[5mC]*e[5mC]*eA*eT*e[5mC]*eG*eA*e[5mC]*eT*eG*eG*eT*eG*eT*eT) [compound 358775] | 222
10 | 358784 (antisense e[5mC]*eG*eA*e[5mC]*eA*eA*eG*eG*eT*eG*eG*eT*eA*e[5mC]*eA*eG*e[5mC]*e[5mC]*eA*eT) [compound 358784] | 358
11 | 358777 (antisense e[5mC]*e[5mC]*eA*eA*eA*eA*eT*eG*eT*e[5mC]*eA*eG*eA*e[5mC]*eA*eG*e[5mC]*e[5mC]*e[5mC]*eA) [compound 358777] | 536

same assay, conditions: HeLa, 100 nM

Row | Substance | levels of the mir-21 pri-miRNA molecule
12 | ISIS 358769: uniform 2′-MOE PS; targets mir-21 pri-miRNA (antisense eG*eA*eT*eA*eA*eG*e[5mC]*eT*eA*e[5mC]*e[5mC]*e[5mC]*eG*eA*e[5mC]*eA*eA*eG*eG*eT) | stimulate an increase in levels of the mir-21 pri-miRNA molecule
13 | ISIS 358776: uniform 2′-MOE PS; targets mir-21 pri-miRNA (antisense eT*eG*eT*e[5mC]*eA*eG*eA*e[5mC]*eA*eG*e[5mC]*e[5mC]*e[5mC]*eA*eT*e[5mC]*eG*eA*e[5mC]*eT) | stimulate an increase in levels of the mir-21 pri-miRNA molecule
14 | ISIS 358770: uniform 2′-MOE PS; targets mir-21 pri-miRNA (antisense eA*eG*eT*e[5mC]*eT*eG*eA*eT*eA*eA*eG*e[5mC]*eT*eA*e[5mC]*e[5mC]*e[5mC]*eG*eA*e[5mC]) | stimulate an increase in levels of the mir-21 pri-miRNA molecule
15 | ISIS 358785: uniform 2′-MOE PS; targets mir-21 pri-miRNA (antisense eG*eA*eA*eA*eG*eA*eT*eA*e[5mC]*e[5mC]*eA*eA*eA*eA*eT*eG*eT*e[5mC]*eA*eG) | stimulate an increase in levels of the mir-21 pri-miRNA molecule
16 | ISIS 358777: uniform 2′-MOE PS; SEQ ID NO: 927; region spanning 3′ Drosha cleavage site of mir-21 pri-miRNA (antisense e[5mC]*e[5mC]*eA*eA*eA*eA*eT*eG*eT*e[5mC]*eA*eG*eA*e[5mC]*eA*eG*e[5mC]*e[5mC]*e[5mC]*eA) [uniform 2′-MOE PS; region spanning 3′ Drosha cleavage site of mir-21 pri-miRNA] | stimulate an increase in levels of the mir-21 pri-miRNA molecule; also recorded: stimulate the greatest increases in expression of the mir-21 pri-miRNA
17 | ISIS 358780: uniform 2′-MOE PS; targets mir-21 pri-miRNA (antisense eA*eA*e[5mC]*eA*eT*eT*eG*eG*eA*eT*eA*eT*eG*eG*eA*eT*eG*eG*eT*e[5mC]) | stimulate an increase in levels of the mir-21 pri-miRNA molecule
18 | ISIS 358778: uniform 2′-MOE PS; targets mir-21 pri-miRNA (antisense eG*eA*eT*eA*e[5mC]*e[5mC]*eA*eA*eA*eA*eT*eG*eT*e[5mC]*eA*eG*eA*e[5mC]*eA*eG) | stimulate an increase in levels of the mir-21 pri-miRNA molecule
19 | ISIS 358779: uniform 2′-MOE PS; SEQ ID NO: 929; region flanking 3′ Drosha cleavage site of mir-21 pri-miRNA (antisense eG*eG*eT*e[5mC]*eA*eG*eA*eT*eG*eA*eA*eA*eG*eA*eT*eA*e[5mC]*e[5mC]*eA*eA) [uniform 2′-MOE PS; region flanking 3′ Drosha cleavage site of mir-21 pri-miRNA] | stimulate an increase in levels of the mir-21 pri-miRNA molecule; also recorded: stimulate the greatest increases in expression of the mir-21 pri-miRNA

same assay, conditions: HeLa, 25, 50, 100 and 200 nM

Row | Substance | mir-21 pri-miRNA levels, dose response
20 | ISIS 358779: uniform 2′-MOE PS; SEQ ID NO: 929; region flanking 3′ Drosha cleavage site of mir-21 pri-miRNA (antisense eG*eG*eT*e[5mC]*eA*eG*eA*eT*eG*eA*eA*eA*eG*eA*eT*eA*e[5mC]*e[5mC]*eA*eA) [uniform 2′-MOE PS; region flanking 3′ Drosha cleavage site of mir-21 pri-miRNA] | dose-responsive induction of mir-21 pri-miRNA levels

test system: B16-F10 cells; experiment: Cell cycle assay in B16-F10 cells; type: cell-based, mouse; details: 150 nM, 48 hours, relative to untreated control
Procedure: BJ cells were routinely cultured in MEM high glucose with 2 mM L-glutamine and Earle's BSS adjusted to contain 1.5 g/L sodium bicarbonate and supplemented with 10% fetal bovine serum, 0.1 mM non-essential amino acids and 1.0 mM sodium pyruvate (all media and supplements from Invitrogen Life Technologies, Carlsbad, Calif.). B16-F10 cells were routinely cultured in DMEM high glucose (Invitrogen Life Technologies, Carlsbad, Calif.) supplemented with 10% fetal bovine serum (Invitrogen Life Technologies, Carlsbad, Calif.). T47D cells were cultured in DMEM High glucose media (Invitrogen Life Technologies, Carlsbad, Calif.) supplemented with 10% fetal bovine serum. […] Cells were plated on collagen-coated 24-well plates (Falcon-Primaria #3047, BD Biosciences, Bedford, Mass.) at approximately 50,000 cells per well and allowed to attach to wells overnight.
In further studies, additional cell lines were treated with oligomeric compounds targeted against miRNAs to assess the effects of each oligomeric compound on cell cycling. BJ, B16, T47D, and HeLa cells were cultured and transfected as described above. […] T47Dp53 cells are T47D cells that have been transfected with and selected for maintenance of a plasmid that expresses a wildtype copy of the p53 gene (for example, pCMV-p53; Clontech, Palo Alto, Calif.), using standard laboratory procedures. BJ cells were treated with 200 nM of each oligomeric compound, and T47D, T47Dp53, HeLa, and B16 cells were treated with 150 nM of each oligomeric compound. The human foreskin fibroblast BJ cell line represents a non-cancer cell line, while HeLa, T47D, T47Dp53 cells and the mouse melanoma cell line B16-F10 represent cancerous cell lines. For comparison, oligomeric compounds ISIS 183891 (SEQ ID NO: 847) and ISIS 285717 ([…]; herein incorporated as SEQ ID NO: 857), both targeting the kinesin-like 1/Eg5 mRNA, involved in cell cycling, were used as positive controls. The random-mer ISIS 29848 was used as a negative control. Additionally, the oligomeric compounds ISIS Number 25690 ([…]; herein incorporated as SEQ ID NO: 858) and ISIS Number 25691 ([…]; herein incorporated as SEQ ID NO: 859), targeted to nucleotides 3051-3070 and 3085-3104, respectively, of the mRNA encoding the Drosha RNase III (GenBank Accession NM_013235.2, incorporated herein as SEQ ID NO: 860) were also tested. ISIS Number 25690 and ISIS Number 25691 are 5-10-52′-MOE gapmer compounds, 20 nucleotides in length, with phosphorothioate internucleoside linkages throughout the oligomeric compound. All cytidine residues are 5-methylcytidines. Transfections were performed using the methods described herein. Cells were prepared for flow cytometry 48-hours after oligonucleotide treatment. Results of these studies are shown in Table 35, where data are expressed as percentage of cells in each phase relative to the untreated control cells in that phase.

Row | Substance | % cells in cell cycle phase G1 [%] | % cells in cell cycle phase G2/M [%] | % cells in cell cycle phase S [%] | % cells in cell cycle phase aneuploid [%] | % cells in cell cycle phase subG1 [%]
21 | 285717 (antisense TCGGTTCTTTCCAAGGCTGA; chemistry not given here) [compound 285717] | 72 | 220 | 78 | 178 | 627
